{"source": "patent US20210198277A1", "about": "“AMINE-SUBSTITUTED ARYL OR HETEROARYL COMPOUNDS” (Epizyme, Inc., priority 2016, published 2021)", "data": [{"molecular_target": "T1, EHMT2 (Homo sapiens, UniProt Q96KQ7)", "T1 construct": "host or cells: MDA-MB-231", "T1 sequence (Q96KQ7 1-1210)": "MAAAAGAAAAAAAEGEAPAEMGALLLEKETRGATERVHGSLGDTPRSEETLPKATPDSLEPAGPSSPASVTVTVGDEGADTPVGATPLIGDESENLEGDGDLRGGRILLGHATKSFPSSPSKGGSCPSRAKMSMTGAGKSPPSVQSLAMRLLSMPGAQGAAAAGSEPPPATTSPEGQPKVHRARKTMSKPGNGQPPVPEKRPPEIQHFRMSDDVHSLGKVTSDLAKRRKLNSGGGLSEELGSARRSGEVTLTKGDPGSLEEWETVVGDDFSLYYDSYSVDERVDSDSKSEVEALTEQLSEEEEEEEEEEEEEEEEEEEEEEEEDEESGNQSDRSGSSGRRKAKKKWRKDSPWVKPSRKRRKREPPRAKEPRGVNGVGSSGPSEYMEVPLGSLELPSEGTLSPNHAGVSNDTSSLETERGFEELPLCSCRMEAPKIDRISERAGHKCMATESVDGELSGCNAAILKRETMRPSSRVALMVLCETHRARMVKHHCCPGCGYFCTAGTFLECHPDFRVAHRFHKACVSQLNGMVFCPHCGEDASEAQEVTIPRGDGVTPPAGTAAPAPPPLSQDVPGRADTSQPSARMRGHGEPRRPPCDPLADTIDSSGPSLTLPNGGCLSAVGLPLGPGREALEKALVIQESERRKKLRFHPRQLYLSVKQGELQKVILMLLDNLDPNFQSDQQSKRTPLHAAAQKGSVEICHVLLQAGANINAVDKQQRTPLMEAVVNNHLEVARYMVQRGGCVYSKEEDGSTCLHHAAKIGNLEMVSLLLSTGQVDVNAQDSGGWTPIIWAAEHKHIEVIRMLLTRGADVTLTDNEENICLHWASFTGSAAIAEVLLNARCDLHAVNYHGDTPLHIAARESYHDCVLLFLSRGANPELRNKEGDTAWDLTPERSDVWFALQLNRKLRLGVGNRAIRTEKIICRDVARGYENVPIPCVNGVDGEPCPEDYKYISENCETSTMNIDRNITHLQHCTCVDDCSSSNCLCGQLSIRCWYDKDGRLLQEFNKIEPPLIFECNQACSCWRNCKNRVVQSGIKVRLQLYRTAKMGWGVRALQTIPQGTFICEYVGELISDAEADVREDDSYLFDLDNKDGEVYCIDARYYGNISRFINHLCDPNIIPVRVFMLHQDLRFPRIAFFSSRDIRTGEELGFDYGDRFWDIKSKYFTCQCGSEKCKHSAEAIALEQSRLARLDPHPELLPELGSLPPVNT", "test": "MDA-MB-231 H3K9me2 in-cell Western assay (EHMT2 ICW)", "type": "cell-based", "conditions": "Table II; MDA-MB-231 H3K9me2 in-cell Western; read-out: EHMT2 ICW (IC50 μM)", "summary_of_the_method": "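IC50 values came from a variable-slope four-parameter fit on triplicate wells, using % inhibition from the 800/700 nm infrared signal ratio (anti-H3K9me2 versus DRAQ5 DNA stain). Before fixation and immunostaining, MDA-MB-231 cells, 3,000 per well, were exposed to compound for 48 h at 37 °C.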", "units": {"IC50": "µM"}, "values": [{"smiles": "COc1ccc(OCCCN2CCCC2)cc1Nc1nccc(NCC2CCOCC2)n1", "note": "[Compound 227]", "IC50": "> 10"}, {"smiles": "COc1ccc(NCCCN2CCCC2)cc1Nc1nccc(NCC2CCOCC2)n1", "note": "[Compound 228]", "IC50": "> 10"}, {"smiles": "CNc1ccnc(Nc2ccc(OC)c(OCCCN3CC[C@@H](F)C3)c2)n1", "note": "[Compound 229]", "IC50": "1 to 10"}, {"smiles": "CNc1ccnc(Nc2ccc(OC)c(OCCCN3CC(F)C3)c2)n1", "note": "[Compound 230]", "IC50": "1 to 10"}, {"smiles": "CNc1nccc(Nc2ccc(OC)c(OCCCN3CCCC3)c2)n1", "note": "[Compound 231]", "IC50": "0.1 to 1"}, {"smiles": "CNc1cc(C)nc(Nc2ccc(F)c(OCCCN3CCCC3)c2)n1", "note": "[Compound 232]", "IC50": "> 10"}, {"smiles": "CNc1nc(Nc2ccc(OC)c(OCCCN3CCCC3)c2)ncc1C#N", "note": "[Compound 233]", "IC50": "> 10"}, {"smiles": "CNc1nc(Nc2ccc(OC)c(OCCCN3CCCC3)c2)ncc1C(F)(F)F", "note": "[Compound 234]", "IC50": "> 10"}, {"smiles": "CNc1ncc(C(F)(F)F)c(Nc2ccc(OC)c(OCCCN3CCCC3)c2)n1", "note": "[Compound 235]", "IC50": "> 10"}, {"smiles": "CNc1nc(Nc2ccc(OC)c(OCCCN3CCCC3)c2)nc(C)c1F", "note": "[Compound 236]", "IC50": "0.1 to 1"}, {"smiles": "CNc1ccnc(Nc2ccc(OC)c(OCCN3CCOCC3)c2)n1", "note": "[Compound 237]", "IC50": "> 10"}, {"smiles": "CNc1ccnc(Nc2ccc3c(c2)N(C(=O)CCN(C)C)CC3)n1", "note": "[Compound 239]", "IC50": "> 10"}, {"smiles": "CCc1cc(NC)nc(Nc2ccc(OC)c(OCCCN3CCCC3)c2)n1", "note": "[Compound 240]", "IC50": "0.1 to 1"}, {"smiles": "COc1ccc(Nc2nccc(CNC3CCOCC3)n2)cc1OCCCNc1ccccc1", "note": "[Compound 241]", "IC50": "> 10"}, {"smiles": "COc1ccc(Nc2cnnc(NCC3CCN(C(C)=O)CC3)c2)cc1OCCCN1CCCC1", "note": "[Compound 242]", "IC50": "> 10"}, {"smiles": "COc1ccc(Nc2nccc(NCC3CCOCC3)n2)cc1OC1CC2(C1)CN(C)C2", "note": "[Compound 243]", "IC50": "> 10"}, {"smiles": "CNc1ccnc(Nc2ccc(F)c(OCCCN3CCCC3)c2)n1", "note": "[Compound 244]", "IC50": "> 10"}, {"smiles": "COc1ccc(Nc2nccc(N)n2)cc1OCCCN1CCCC1", "note": "[Compound 245]", "IC50": "1 to 10"}, {"smiles": "CNc1cnnc(Nc2ccc(OC)c(OCCCN3CCCC3)c2)c1", "note": "[Compound 246]", "IC50": "> 10"}, {"smiles": "CNc1cncc(Nc2ccc(OC)c(OCCCN3CCCC3)c2)n1", "note": "[Compound 247]", "IC50": "1 to 10"}, {"smiles": "CNc1cc(Nc2cc(OCCCN3CCCC3)c(OC)cn2)ccn1", "note": "[Compound 248]", "IC50": "0.1 to 1"}, {"smiles": "COc1ccc(Nc2nccc3[nH]ncc23)cc1OCCCN1CCCC1", "note": "[Compound 249]", "IC50": "> 10"}, {"smiles": "COc1ccc(Nc2ccnc3[nH]ccc23)cc1OCCCN1CCCC1", "note": "[Compound 250]", "IC50": "> 10"}, {"smiles": "CC(C)Nc1ccnc(Nc2cccc(OCCCN3CC[C@@H](F)C3)c2)n1", "note": "[Compound 251]", "IC50": "> 10"}, {"smiles": "CNc1ccnc(Nc2cccc(OC[C@H](O)CN3CCCC3)c2)n1", "note": "[Compound 252]", "IC50": "1 to 10"}, {"smiles": "CNc1ccnc(Nc2cccc(OC[C@@H](O)CN3CCCC3)c2)n1", "note": "[Compound 253]", "IC50": "> 10"}]}]}
